In PubChem BioAssay (NCI):
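The compound was tested at five concentrations on cells cultured in 96-well plates, with a 48-hour exposure period. The concentration for 50% growth inhibition is given as GI50. Definition used: TGI = concentration required for complete inhibition of growth.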

Columns and labels:
Assay in all cases: NCI tumour cell line growth inhibition, 48 h
786-0 renal = test system: 786-0 renal
A498 renal = test system: A498 renal
A549 NSCLC = test system: A549 NSCLC
ACHN renal = test system: ACHN renal
BT-549 breast = test system: BT-549 breast
CAKI-1 renal = test system: CAKI-1 renal
CCRF-CEM leukemia = test system: CCRF-CEM leukemia
COLO 205 colon = test system: COLO 205 colon
DU-145 prostate = test system: DU-145 prostate
EKVX NSCLC = test system: EKVX NSCLC
HCC-2998 colon = test system: HCC-2998 colon
HCT-116 colon = test system: HCT-116 colon
HCT-15 colon = test system: HCT-15 colon
HL-60(TB) leukemia = test system: HL-60(TB) leukemia
HOP-62 NSCLC = test system: HOP-62 NSCLC
HOP-92 NSCLC = test system: HOP-92 NSCLC
HS 578T breast = test system: HS 578T breast
HT29 colon = test system: HT29 colon
IGROV1 ovarian = test system: IGROV1 ovarian
K-562 leukemia = test system: K-562 leukemia
KM12 colon = test system: KM12 colon
LOX IMVI melanoma = test system: LOX IMVI melanoma
M14 melanoma = test system: M14 melanoma
MALME-3M melanoma = test system: MALME-3M melanoma
MCF7 breast = test system: MCF7 breast
MDA-MB-231 breast = test system: MDA-MB-231 breast
MDA-MB-435 = test system: MDA-MB-435
MDA-MB-468 breast = test system: MDA-MB-468 breast
MOLT-4 leukemia = test system: MOLT-4 leukemia
NCI-H226 lung = test system: NCI-H226 lung
NCI-H23 lung = test system: NCI-H23 lung
NCI-H460 lung = test system: NCI-H460 lung
NCI-H522 lung = test system: NCI-H522 lung
NCI/ADR-RES ovarian = test system: NCI/ADR-RES ovarian
OVCAR-3 ovarian = test system: OVCAR-3 ovarian
OVCAR-4 ovarian = test system: OVCAR-4 ovarian
OVCAR-5 ovarian = test system: OVCAR-5 ovarian
OVCAR-8 ovarian = test system: OVCAR-8 ovarian
PC-3 prostate = test system: PC-3 prostate
RXF 393 renal = test system: RXF 393 renal
SF-268 CNS = test system: SF-268 CNS
SF-295 CNS = test system: SF-295 CNS
SF-539 CNS = test system: SF-539 CNS
SK-MEL-28 melanoma = test system: SK-MEL-28 melanoma
SK-MEL-5 melanoma = test system: SK-MEL-5 melanoma
SK-OV-3 ovarian = test system: SK-OV-3 ovarian
SN12C renal = test system: SN12C renal
SNB-19 CNS = test system: SNB-19 CNS
SNB-75 CNS = test system: SNB-75 CNS
SR leukemia = test system: SR leukemia
SW-620 colon = test system: SW-620 colon
T-47D breast = test system: T-47D breast
TK-10 renal = test system: TK-10 renal
U251 CNS = test system: U251 CNS
UACC-257 melanoma = test system: UACC-257 melanoma
UACC-62 melanoma = test system: UACC-62 melanoma
UO-31 renal = test system: UO-31 renal

CC[C@]12C=CCN3CC[C@@]4(c5ccc(OC)cc5N(C)[C@H]4[C@@](O)(C(=O)OC)[C@@H]1OC(=O)CCC[P+](c1ccc(OC)cc1)(c1ccc(OC)cc1)c1ccc(OC)cc1)[C@@H]32
GI50 (786-0 renal): 1530 nM
TGI (786-0 renal): 3370 nM
GI50 (A498 renal): 2020 nM
TGI (A498 renal): 5670 nM
GI50 (A549 NSCLC): 591 nM
TGI (A549 NSCLC): 4390 nM
GI50 (ACHN renal): 2760 nM
TGI (ACHN renal): 7890 nM
GI50 (BT-549 breast): 532 nM
TGI (BT-549 breast): 1350 nM
GI50 (CAKI-1 renal): 4360 nM
TGI (CAKI-1 renal): 9190 nM
GI50 (CCRF-CEM leukemia): 582 nM
TGI (CCRF-CEM leukemia): 2020 nM
GI50 (COLO 205 colon): 192 nM
TGI (COLO 205 colon): 369 nM
GI50 (DU-145 prostate): 635 nM
TGI (DU-145 prostate): 4340 nM
GI50 (EKVX NSCLC): 737 nM
TGI (EKVX NSCLC): 3350 nM
GI50 (HCC-2998 colon): 446 nM
TGI (HCC-2998 colon): 1570 nM
GI50 (HCT-116 colon): 469 nM
TGI (HCT-116 colon): 1660 nM
GI50 (HCT-15 colon): 2510 nM
TGI (HCT-15 colon): 7000 nM
GI50 (HL-60(TB) leukemia): 237 nM
TGI (HL-60(TB) leukemia): 800 nM
GI50 (HOP-62 NSCLC): 1040 nM
TGI (HOP-62 NSCLC): 2670 nM
GI50 (HOP-92 NSCLC): 279 nM
TGI (HOP-92 NSCLC): 1080 nM
GI50 (HS 578T breast): 1180 nM
TGI (HS 578T breast): 3970 nM
GI50 (HT29 colon): 284 nM
TGI (HT29 colon): 859 nM
GI50 (IGROV1 ovarian): 455 nM
TGI (IGROV1 ovarian): 1600 nM
GI50 (K-562 leukemia): 556 nM
TGI (K-562 leukemia): 2130 nM
GI50 (KM12 colon): 464 nM
TGI (KM12 colon): 1560 nM
GI50 (LOX IMVI melanoma): 490 nM
TGI (LOX IMVI melanoma): 1590 nM
GI50 (M14 melanoma): 638 nM
TGI (M14 melanoma): 1870 nM
GI50 (MALME-3M melanoma): 224 nM
TGI (MALME-3M melanoma): 536 nM
GI50 (MCF7 breast): 383 nM
TGI (MCF7 breast): 1430 nM
GI50 (MDA-MB-231 breast): 254 nM
TGI (MDA-MB-231 breast): 654 nM
GI50 (MDA-MB-435): 381 nM
TGI (MDA-MB-435): 1420 nM
GI50 (MDA-MB-468 breast): 166 nM
TGI (MDA-MB-468 breast): 491 nM
GI50 (MOLT-4 leukemia): 621 nM
TGI (MOLT-4 leukemia): 2380 nM
GI50 (NCI-H226 lung): 1430 nM
TGI (NCI-H226 lung): 3870 nM
GI50 (NCI-H23 lung): 472 nM
TGI (NCI-H23 lung): 1660 nM
GI50 (NCI-H460 lung): 666 nM
TGI (NCI-H460 lung): 2360 nM
GI50 (NCI-H522 lung): 334 nM
TGI (NCI-H522 lung): 1180 nM
GI50 (NCI/ADR-RES ovarian): 18100 nM
TGI (NCI/ADR-RES ovarian): 49700 nM
GI50 (OVCAR-3 ovarian): 422 nM
TGI (OVCAR-3 ovarian): 1570 nM
GI50 (OVCAR-4 ovarian): 537 nM
TGI (OVCAR-4 ovarian): 3440 nM
GI50 (OVCAR-5 ovarian): 686 nM
TGI (OVCAR-5 ovarian): 2210 nM
GI50 (OVCAR-8 ovarian): 1420 nM
TGI (OVCAR-8 ovarian): 3870 nM
GI50 (PC-3 prostate): 414 nM
TGI (PC-3 prostate): 2150 nM
GI50 (RXF 393 renal): 362 nM
TGI (RXF 393 renal): 1340 nM
GI50 (SF-268 CNS): 318 nM
TGI (SF-268 CNS): 1460 nM
GI50 (SF-295 CNS): 1250 nM
TGI (SF-295 CNS): 3030 nM
GI50 (SF-539 CNS): 622 nM
TGI (SF-539 CNS): 1670 nM
GI50 (SK-MEL-28 melanoma): 477 nM
TGI (SK-MEL-28 melanoma): 1640 nM
GI50 (SK-MEL-5 melanoma): 722 nM
TGI (SK-MEL-5 melanoma): 1870 nM
GI50 (SK-OV-3 ovarian): 595 nM
TGI (SK-OV-3 ovarian): 1680 nM
GI50 (SN12C renal): 458 nM
TGI (SN12C renal): 1510 nM
GI50 (SNB-19 CNS): 341 nM
TGI (SNB-19 CNS): 1350 nM
GI50 (SNB-75 CNS): 178 nM
TGI (SNB-75 CNS): 735 nM
GI50 (SR leukemia): 397 nM
TGI (SR leukemia): 1780 nM
GI50 (SW-620 colon): 557 nM
TGI (SW-620 colon): 2050 nM
GI50 (T-47D breast): 309 nM
TGI (T-47D breast): 1600 nM
GI50 (TK-10 renal): 1400 nM
TGI (TK-10 renal): 2870 nM
GI50 (U251 CNS): 360 nM
TGI (U251 CNS): 1370 nM
GI50 (UACC-257 melanoma): 489 nM
TGI (UACC-257 melanoma): 1760 nM
GI50 (UACC-62 melanoma): 396 nM
TGI (UACC-62 melanoma): 1170 nM
GI50 (UO-31 renal): 3090 nM
TGI (UO-31 renal): 15500 nM
